Reference: PubChem BioAssay (NCI)
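Protocol summary: plate cells (96-well), add compound at 5 concentrations, incubate 48 h, interpolate endpoints linearly. Abbreviation: GI50, concentration required for 50% inhibition of growth. TGI is the concentration that stops growth completely.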

Tests used:
Assay in all cases: DTP human tumour cell line panel, 48 h
[1] = tested on: BT-549 breast
[2] = tested on: A549 NSCLC
[3] = tested on: KM12 colon
[4] = tested on: CCRF-CEM leukemia
[5] = tested on: UO-31 renal
[6] = tested on: HCC-2998 colon
[7] = tested on: NCI/ADR-RES ovarian
[8] = tested on: MDA-MB-231 breast
[9] = tested on: CAKI-1 renal
[10] = tested on: MCF7 breast

Structure (SMILES) | GI50 [1] [µM] | TGI [1] [µM] | GI50 [2] [µM] | TGI [2] [µM] | GI50 [3] [µM] | TGI [3] [µM] | GI50 [4] [µM] | TGI [4] [µM] | GI50 [5] [µM] | TGI [5] [µM] | GI50 [6] [µM] | TGI [6] [µM] | GI50 [7] [µM] | TGI [7] [µM] | GI50 [8] [µM] | TGI [8] [µM] | GI50 [9] [µM] | TGI [9] [µM] | GI50 [10] [µM] | TGI [10] [µM]
CC1=C(C(=O)Nc2ccc3[nH]ncc3c2)C(c2ccc3ccccc3c2)CC(=O)N1 (stereo unspecified) | 4.11 | > 25 | > 25 | > 25 | 17.8 | > 25 | > 25 | > 25 | 2.4 | > 25 | > 25 | > 25 | > 25 | > 25 | 11.7 | > 25 | > 16.9 | > 25 | 24.4 | > 25
C[C@]12CC[C@H](O)CC1=CC[C@@H]1[C@@H]2CC[C@]2(C)C(c3cccnc3)=CC[C@@H]12 | 21.7 | > 100 | > 100 | > 100 | 76.3 | > 100 | > 96.6 | > 100 | > 100 | > 100 | > 100 | > 100 | 38.4 | > 100 | > 27.1 | > 100 | > 100 | > 100 | > 100 | > 100
O=NN(Cc1ccc(Cl)cc1)C(C(=O)O)c1ccccc1 (stereo unspecified) |  | > 100 |  | > 100 |  | > 100 |  | > 100 |  | > 100 |  | > 100 |  | > 100 |  | > 100 |  | > 100 |  | > 100
O=c1oc2ccc(F)cc2c(=O)n1-c1ccc(F)cc1F | 2.53 | 7.4 | 3.35 | > 100 | 3.38 | 14 | 3.95 | 67.4 | 1.93 | 6.56 | 3.9 | 27.7 | 3.24 | > 100 | 2.3 | 6.99 | 1.98 | 6.4 | 2.87 | > 100
CNC(=O)OCc1c(COC(=O)NC)c(-c2ccc(Cl)c(Cl)c2)n2c1SCC2 | 6.23 | 22.4 |  | > 88 |  | 36.8 |  | 64.9 |  | 25.5 |  | 30 |  | 40 |  | 34.4 |  | 23.9 |  | 27.2
CSc1ccc(C2=NN(C(C)=O)C(c3cc(C)cs3)C2)cc1 (stereo unspecified) | 17.1 | 63.7 | 27.2 | > 100 | 24 | > 100 | 26.7 | > 100 | 19.9 | > 100 | 20 | > 100 | 24.5 | > 100 | 27.5 | > 100 | 28.4 | > 100 | 16.2 | 46.3
CC1OC(n2cc(F)c(=O)[nH]c2=O)CCC1O (stereo unspecified) |  | > 100 |  | > 100 |  | > 100 |  | > 100 |  | > 100 |  | > 100 |  | > 100 |  | > 100 |  | > 100 |  | > 72.3
CN(C)CCNc1cc(-c2ccccc2)nc2ccccc12 | 11.5 | 28.8 | 4.83 | 43.5 | 4.87 | 27.4 | 4.43 | 37.3 | 4.01 | 26.9 | 10.2 | 25.1 | 9.11 | 53.3 | 7.45 | 32.5 | 6.56 | 40.9 | 3.68 | 19.7
Cc1cc(N(CCOS(C)(=O)=O)CCOS(C)(=O)=O)ccc1C=Nc1ccc(-c2nc(Cc3ccccc3)sc2C)cc1 |  | 34.8 |  | 21.6 |  | 34 |  | 24.3 |  | 18.3 |  | 15.7 |  | 47.8 |  | 26.9 |  | 9.2 |  | 49.7
CC1CCC2(C(=O)O)CCC3(C)C(=CCC4C5(C)CC(O)C(O)C(C)(CO)C5C(O)CC43C)C2C1C (stereo unspecified) |  | > 93.5 |  | > 100 |  | > 100 |  | 53.3 |  | > 100 |  | > 100 |  | > 100 |  | 72 |  | > 100 |  | > 100
O=C1/C(=C/c2ccc(Br)cc2)C=C(c2ccccc2)N1CCc1ccccc1 | 2.59 | 9.06 | 1.37 | 11.9 | 43.6 | > 100 | 7.76 | > 100 | 2.82 | 19.8 | 7.52 | > 100 | 1.08 | 8.01 | 1.67 | 24.7 | 1.23 | 7.6 | 3.42 | 32.7
COC(=O)CCCCN=Cc1c(O)c(O)c(C(C)C)c2cc(C)c(-c3c(C)cc4c(C(C)C)c(O)c(O)c(C=NCCCCC(=O)OC)c4c3O)c(O)c12 | 1.5 | 23.8 | 0.979 | > 32.5 | 0.799 | > 32.5 | 0.746 | 17.5 | 0.923 | 26.5 | 1.19 | > 32.5 | 2.32 | > 32.5 | 1.08 | 12.1 | 1.17 | > 32.5 | 0.917 | 6.26
